Results: article PMC4823724 (Scientific Reports, 2016)

Experiments:
[1] = biological target: T1, (UniProt G7TDB2); assay: biochemical
T1 construct: gene XOC_2102

[2] = biological target: T2, (UniProt G7TKC9); assay: biochemical
T2 construct: gene XOC_4190

[3] = biological target: T3, XOC_4190ΔG
T3 construct: gene XOC_4190

T2 sequence (G7TKC9 1-656 limits assumed): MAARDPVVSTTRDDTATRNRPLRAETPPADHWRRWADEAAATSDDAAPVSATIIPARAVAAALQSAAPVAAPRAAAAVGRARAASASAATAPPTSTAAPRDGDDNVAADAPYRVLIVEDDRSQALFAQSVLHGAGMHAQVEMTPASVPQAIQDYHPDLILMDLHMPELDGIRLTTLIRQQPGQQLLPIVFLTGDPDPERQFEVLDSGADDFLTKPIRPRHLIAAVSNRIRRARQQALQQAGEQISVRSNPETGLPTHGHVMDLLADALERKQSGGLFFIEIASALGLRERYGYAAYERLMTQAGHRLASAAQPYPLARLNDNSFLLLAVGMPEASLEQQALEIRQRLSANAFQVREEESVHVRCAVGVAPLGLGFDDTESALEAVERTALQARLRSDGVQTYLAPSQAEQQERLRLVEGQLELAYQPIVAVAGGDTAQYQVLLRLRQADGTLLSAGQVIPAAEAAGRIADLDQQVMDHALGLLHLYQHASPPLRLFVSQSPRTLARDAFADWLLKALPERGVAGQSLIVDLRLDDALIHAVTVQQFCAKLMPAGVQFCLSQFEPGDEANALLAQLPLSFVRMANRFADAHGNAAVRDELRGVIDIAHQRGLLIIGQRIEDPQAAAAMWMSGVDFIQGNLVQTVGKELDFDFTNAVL
T1 sequence (G7TDB2 1-689): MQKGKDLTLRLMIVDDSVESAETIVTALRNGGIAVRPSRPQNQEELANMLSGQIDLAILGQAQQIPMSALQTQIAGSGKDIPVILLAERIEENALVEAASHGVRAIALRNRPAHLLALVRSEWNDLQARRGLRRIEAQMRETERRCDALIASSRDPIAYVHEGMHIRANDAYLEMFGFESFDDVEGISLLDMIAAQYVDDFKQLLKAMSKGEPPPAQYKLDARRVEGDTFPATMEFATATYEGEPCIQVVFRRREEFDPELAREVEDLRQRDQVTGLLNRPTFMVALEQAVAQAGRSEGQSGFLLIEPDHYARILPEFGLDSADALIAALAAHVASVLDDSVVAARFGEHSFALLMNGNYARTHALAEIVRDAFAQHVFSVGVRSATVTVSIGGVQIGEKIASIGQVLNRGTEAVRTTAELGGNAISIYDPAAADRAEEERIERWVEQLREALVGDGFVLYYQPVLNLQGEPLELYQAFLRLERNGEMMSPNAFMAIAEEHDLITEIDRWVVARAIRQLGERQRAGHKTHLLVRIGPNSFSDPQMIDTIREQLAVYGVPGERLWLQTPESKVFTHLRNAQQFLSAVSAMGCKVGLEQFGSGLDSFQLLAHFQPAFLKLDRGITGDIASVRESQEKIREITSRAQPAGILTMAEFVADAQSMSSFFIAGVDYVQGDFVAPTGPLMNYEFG

Molecule `Nc1nc2c(ncn2[C@@H]2O[C@@H]3COP(=O)(O)O[C@H]4[C@@H](O)[C@H](n5cnc6c(=O)[nH]c(N)nc65)O[C@@H]4COP(=O)(O)O[C@H]3[C@H]2O)c(=O)[nH]1` [c-di-GMP] has a Kd [1] of 2.9 ± 0.13 µM, a Kd [2] of 4.59 ± 0.36 µM and a Kd [3] of 4.46 ± 0.28 µM.
